Laboratory results taken from ChEMBL document CHEMBL5724914, “Linking interpersonal differences in gut microbiota composition and drug biotransformation activity” (2024).

Assays:
[1] = The drug is tested on Z-025 corresponding to rabbit gut metagenome with ENA study accession number: PRJEB37062 and ENA sample accession number: ERS12561824 for biotransformation under anaerobic condition. The drug concentrations were measured over 9 timepoints collected between 0 and 24 hours of incubation by liquid-chromatography-coupled mass spectrometry (LC–MS); details: 2 µM
[2] = The drug is tested on Z-014 corresponding to rat gut metagenome with ENA study accession number: PRJEB37062 and ENA sample accession number: ERS12561814 for biotransformation under anaerobic condition. The drug concentrations were measured over 9 timepoints collected between 0 and 24 hours of incubation by liquid-chromatography-coupled mass spectrometry (LC–MS); details: 2 µM
[3] = human gut metagenome, 24 h, 2 µM
[4] = human gut metagenome, 24 h, 2 µM; remark: listed apart in the source
[5] = human gut metagenome, 24 h, 2 µM; remark: listed apart in the source
[6] = human gut metagenome, 24 h, 2 µM; remark: listed apart in the source
[7] = human gut metagenome, 24 h, 2 µM; remark: listed apart in the source
[8] = The drug is tested on WLS-010 corresponding to human gut metagenome with ENA study accession number: PRJEB37062 and ENA sample accession number: ERS12561743 for biotransformation under anaerobic condition. The drug concentrations were measured over 9 timepoints collected between 0 and 24 hours of incubation by liquid-chromatography-coupled mass spectrometry (LC–MS); details: 2 µM
[9] = The drug is tested on WLS-090 corresponding to human gut metagenome with ENA study accession number: PRJEB37062 and ENA sample accession number: ERS12561753 for biotransformation under anaerobic condition. The drug concentrations were measured over 9 timepoints collected between 0 and 24 hours of incubation by liquid-chromatography-coupled mass spectrometry (LC–MS); details: 2 µM
[10] = The drug is tested on WLS-007 corresponding to human gut metagenome with ENA study accession number: PRJEB37062 and ENA sample accession number: ERS12561742 for biotransformation under anaerobic condition. The drug concentrations were measured over 9 timepoints collected between 0 and 24 hours of incubation by liquid-chromatography-coupled mass spectrometry (LC–MS); details: 2 µM
[11] = The drug is tested on Z-013 corresponding to rabbit gut metagenome with ENA study accession number: PRJEB37062 and ENA sample accession number: ERS12561813 for biotransformation under anaerobic condition. The drug concentrations were measured over 9 timepoints collected between 0 and 24 hours of incubation by liquid-chromatography-coupled mass spectrometry (LC–MS); details: 2 µM
[12] = The drug is tested on Z-008 corresponding to metagenome with ENA study accession number: PRJEB37062 and ENA sample accession number: ERS12561808 for biotransformation under anaerobic condition. The drug concentrations were measured over 9 timepoints collected between 0 and 24 hours of incubation by liquid-chromatography-coupled mass spectrometry (LC–MS); details: 2 µM
[13] = human gut metagenome, 24 h, 2 µM; remark: listed apart in the source
[14] = The drug is tested on WLS-027 corresponding to human gut metagenome with ENA study accession number: PRJEB37062 and ENA sample accession number: ERS12561744 for biotransformation under anaerobic condition. The drug concentrations were measured over 9 timepoints collected between 0 and 24 hours of incubation by liquid-chromatography-coupled mass spectrometry (LC–MS); details: 2 µM
[15] = The drug is tested on WLS-370 corresponding to human gut metagenome with ENA study accession number: PRJEB37062 and ENA sample accession number: ERS12561793 for biotransformation under anaerobic condition. The drug concentrations were measured over 9 timepoints collected between 0 and 24 hours of incubation by liquid-chromatography-coupled mass spectrometry (LC–MS); details: 2 µM
[16] = human gut metagenome, 24 h, 2 µM; remark: listed apart in the source
[17] = The drug is tested on WLS-069 corresponding to human gut metagenome with ENA study accession number: PRJEB37062 and ENA sample accession number: ERS12561748 for biotransformation under anaerobic condition. The drug concentrations were measured over 9 timepoints collected between 0 and 24 hours of incubation by liquid-chromatography-coupled mass spectrometry (LC–MS); details: 2 µM
[18] = The drug is tested on WLS-082 corresponding to human gut metagenome with ENA study accession number: PRJEB37062 and ENA sample accession number: ERS12561751 for biotransformation under anaerobic condition. The drug concentrations were measured over 9 timepoints collected between 0 and 24 hours of incubation by liquid-chromatography-coupled mass spectrometry (LC–MS); details: 2 µM
[19] = human gut metagenome, 24 h, 2 µM; remark: listed apart in the source
[20] = The drug is tested on Z-030 corresponding to mouse gut metagenome with ENA study accession number: PRJEB37062 and ENA sample accession number: ERS12561829 for biotransformation under anaerobic condition. The drug concentrations were measured over 9 timepoints collected between 0 and 24 hours of incubation by liquid-chromatography-coupled mass spectrometry (LC–MS); details: 2 µM
Further: call rule not given here.

Row | Bacterial Biotransformation [1] | Bacterial Biotransformation [2] | Bacterial Biotransformation [3] | Bacterial Biotransformation [4] | Bacterial Biotransformation [5] | Bacterial Biotransformation [6] | Bacterial Biotransformation [7] | Bacterial Biotransformation [8] | Bacterial Biotransformation [9] | Bacterial Biotransformation [10] | Bacterial Biotransformation [11] | Bacterial Biotransformation [12] | Bacterial Biotransformation [13] | Bacterial Biotransformation [14] | Bacterial Biotransformation [15] | Bacterial Biotransformation [16] | Bacterial Biotransformation [17] | Bacterial Biotransformation [18] | Bacterial Biotransformation [19] | Bacterial Biotransformation [20] | SMILES
1 | Compound NOT metabolized | Compound NOT metabolized | Compound metabolized | Compound metabolized | Compound metabolized | Compound metabolized | Compound metabolized | Compound metabolized | Compound metabolized | Compound NOT metabolized | Compound NOT metabolized | Compound NOT metabolized | Compound metabolized | Compound metabolized | Compound metabolized | Compound metabolized | Compound metabolized | Compound metabolized | Compound metabolized | Compound NOT metabolized | Cc1ccc(S(=O)(=O)NC(=O)NN2CC3CCCC3C2)cc1 (stereo not given) [GLICLAZIDE]
2 | Compound NOT metabolized | Compound NOT metabolized | Compound NOT metabolized | Compound NOT metabolized | Compound NOT metabolized | Compound NOT metabolized | Compound NOT metabolized | Compound NOT metabolized | Compound NOT metabolized | Compound NOT metabolized | Compound NOT metabolized | Compound NOT metabolized | Compound NOT metabolized | Compound NOT metabolized | Compound NOT metabolized | Compound NOT metabolized | Compound NOT metabolized | Compound NOT metabolized | Compound NOT metabolized | Compound NOT metabolized | N#Cc1ccc(C(c2ccc(C#N)cc2)n2cncn2)cc1 [LETROZOLE]

The next lines start with the compound.

Row | SMILES | Bacterial Biotransformation [1] | Bacterial Biotransformation [2] | Bacterial Biotransformation [3] | Bacterial Biotransformation [4] | Bacterial Biotransformation [5] | Bacterial Biotransformation [6] | Bacterial Biotransformation [7] | Bacterial Biotransformation [8] | Bacterial Biotransformation [9] | Bacterial Biotransformation [10] | Bacterial Biotransformation [11] | Bacterial Biotransformation [12] | Bacterial Biotransformation [13] | Bacterial Biotransformation [14] | Bacterial Biotransformation [15] | Bacterial Biotransformation [16] | Bacterial Biotransformation [17] | Bacterial Biotransformation [18] | Bacterial Biotransformation [19] | Bacterial Biotransformation [20]
3 | OCCN1CCN(CCCN2c3ccccc3Sc3ccc(C(F)(F)F)cc32)CC1 [FLUPHENAZINE] | Compound metabolized | Compound NOT metabolized | Compound metabolized | Compound metabolized | Compound metabolized | Compound metabolized | Compound metabolized | Compound metabolized | Compound metabolized | Compound NOT metabolized | Compound NOT metabolized | Compound NOT metabolized | Compound metabolized | Compound metabolized | Compound metabolized | Compound metabolized | Compound metabolized | Compound metabolized | Compound metabolized | Compound NOT metabolized
4 | COc1ccc2c3c1O[C@H]1C[C@@H](O)C=C[C@@]31CCN(C)C2 [GALANTAMINE] | Compound NOT metabolized | Compound NOT metabolized | Compound metabolized | Compound metabolized | Compound NOT metabolized | Compound NOT metabolized | Compound metabolized | Compound metabolized | Compound metabolized | Compound NOT metabolized | Compound NOT metabolized | Compound NOT metabolized | Compound NOT metabolized | Compound NOT metabolized | Compound NOT metabolized | Compound NOT metabolized | Compound NOT metabolized | Compound NOT metabolized | Compound NOT metabolized | Compound NOT metabolized
5 | COC1=CC(=O)C[C@@H](C)[C@]12Oc1c(Cl)c(OC)cc(OC)c1C2=O [GRISEOFULVIN] | Compound metabolized | Compound metabolized | Compound NOT metabolized | Compound metabolized | Compound NOT metabolized | Compound metabolized | Compound metabolized | Compound metabolized | Compound NOT metabolized | Compound metabolized | Compound metabolized | Compound NOT metabolized | Compound metabolized | Compound metabolized | Compound metabolized | Compound metabolized | Compound metabolized | Compound metabolized | Compound metabolized | Compound NOT metabolized
